Measurements: US11807693B2 (priority 2014, dated 2023)
Like-named read-outs stand apart in the source and are kept apart here. Starred links: 1 amine or outer side, 2 acyl side, 3 side chain; linkers in the order of their positions; H or OH if unused. Non-standard residues stand in square brackets, D forms with d. Residues, ends and D or L forms follow the SMILES beside them. *: point of attachment. dBip = N[C@H](Cc1ccc(-c2ccccc2)cc1)C(=O)O; Oic = O=C(O)[C@@H]1C[C@@H]2CCCC[C@@H]2N1; Phe(4-Cl) = N[C@@H](Cc1ccc(Cl)cc1)C(=O)O; Phe(4-I) = N[C@@H](Cc1ccc(I)cc1)C(=O)O; γGlu = O=C(O)[C@H](CCC(=O)[*:2])N[*:1]; NMeR = CN[C@@H](CCCNC(=N)N)C(=O)O; Palmitoyl = CCCCCCCCCCCCCCCC(=O)*; Tridecanoyl = CCCCCCCCCCCCC(=O)*; hArg = N=C(N)NCCCC[C@H](N)C(=O)O; Cha = N[C@@H](CC1CCCCC1)C(=O)O; NMeL = CN[C@@H](CC(C)C)C(=O)O; Tle = CC(C)(C)[C@H](N)C(=O)O; αMeP = C[C@@]1(C(=O)O)CCCN1; β3hP = O=C(O)C[C@@H]1CCCN1; Pip = O=C(O)[C@@H]1CCCCN1; Nle = CCCC[C@H](N)C(=O)O; AEEA = NCCOCCOCC(=O)O; Aib = CC(C)(N)C(=O)O; NPrGly = CCCNCC(=O)O

Key:
human APJ receptor = target: T1, human APJ receptor (Homo sapiens, UniProt P35414); test: [35S] GTPγS assay, human APJ receptor; format: biochemical
T1 construct: expressed in transfected cells
T1 sequence (P35414 1-380): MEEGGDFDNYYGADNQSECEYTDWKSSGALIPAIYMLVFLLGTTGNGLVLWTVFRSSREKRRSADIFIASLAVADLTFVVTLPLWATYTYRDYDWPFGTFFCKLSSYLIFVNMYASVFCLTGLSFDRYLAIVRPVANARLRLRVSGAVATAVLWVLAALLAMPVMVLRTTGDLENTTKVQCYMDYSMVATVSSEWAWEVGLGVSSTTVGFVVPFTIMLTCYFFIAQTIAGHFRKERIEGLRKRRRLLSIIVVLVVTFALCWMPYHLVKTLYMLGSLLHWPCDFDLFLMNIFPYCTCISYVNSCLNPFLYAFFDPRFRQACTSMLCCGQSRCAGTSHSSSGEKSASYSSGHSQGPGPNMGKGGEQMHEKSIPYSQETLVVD

rat APJ receptor = target: T2, rat APJ receptor (Rattus norvegicus, UniProt Q9JHG3); test: [35S] GTPγS assay, rat APJ receptor; format: biochemical
T2 construct: expressed in transfected cells
T2 sequence (Q9JHG3 1-377): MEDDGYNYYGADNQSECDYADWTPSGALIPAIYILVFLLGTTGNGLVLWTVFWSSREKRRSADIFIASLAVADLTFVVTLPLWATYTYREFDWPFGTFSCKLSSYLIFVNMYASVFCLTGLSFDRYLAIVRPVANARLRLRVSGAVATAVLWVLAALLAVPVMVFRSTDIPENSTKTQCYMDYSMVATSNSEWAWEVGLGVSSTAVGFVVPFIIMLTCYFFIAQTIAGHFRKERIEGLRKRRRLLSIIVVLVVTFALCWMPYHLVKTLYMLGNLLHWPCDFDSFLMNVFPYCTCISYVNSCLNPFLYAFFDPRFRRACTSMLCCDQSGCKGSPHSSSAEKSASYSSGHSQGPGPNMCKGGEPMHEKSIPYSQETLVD
Method: The membranes were incubated with modified peptides in the assay buffer. […] Bound [^35S] GTPγS was separated from free radiolabel by filtration. The filter bound radioactivity was determined by liquid scintillation counting.

[1] = In vitro stability in rat plasma; format: in vitro ADME
Procedure, shortened: (§1)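 Peptide remaining was followed by high-resolution LC-MS of methanol-quenched, centrifuged samples with internal standard. Incubations were at 37° C. over 4 hr, peptides at 5 μM final in rat plasma or in rat liver or kidney homogenate.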

[2] = In vitro stability in rat liver homogenate; format: in vitro ADME; settings: tissue homogenate
Procedure, shortened: as §1

[3] = rat APJ receptor, read-out: EC50 Rat APJ Receptor

SMILES	EC50 (human APJ receptor; Table 16) [nM]	EC50 (human APJ receptor; human APJ receptor) [nM]	also measured
CCCCCCCCCCCCC(=O)N[C@@H](CCC(=O)NCCOCCOCC(=O)NCCOCCOCC(=O)N[C@H](CCC(N)=O)C(=O)N[C@@H](CCCNC(=N)N)C(=O)N1CCC[C@H]1C(=O)N(C)[C@@H](CCCNC(=N)N)C(=O)N[C@@H](CC1CCCCC1)C(=O)N[C@@H](CO)C(=O)N[C@@H](Cc1c[nH]cn1)C(=O)N[C@@H](CCCCN)C(=O)NCC(=O)N1CCC[C@@]1(C)C(=O)N[C@@H](CCCC)C(=O)N[C@@H](Cc1ccc(Cl)cc1)C(=O)O)C(=O)O [compound 551] ({Tridecanoyl-γGlu-AEEA-AEEA}-[dQ]RP[NMeR][Cha]SHKG[αMeP][Nle][Phe(4-Cl)]-OH)	0.235		EC50 (rat APJ receptor; Table 16, read-out: EC50 Rat APJ Receptor): 1.15 nM
CCCCCCCCCCCCC(=O)N[C@@H](CCC(=O)NCCOCCOCC(=O)NCCOCCOCC(=O)N[C@@H](CCCCNC(=N)N)C(=O)N[C@H](CCCNC(=N)N)C(=O)N[C@@H](CCC(N)=O)C(=O)N[C@@H](CCCCNC(=N)N)C(=O)N1CCC[C@H]1C(=O)N[C@@H](CCCCN)C(=O)N(C)[C@@H](CC(C)C)C(=O)N[C@@H](CO)C(=O)N[C@@H](Cc1c[nH]cn1)C(=O)N[C@@H](CCCC)C(=O)NCC(=O)N1[C@H](C(=O)N[C@@H](Cc2ccc(I)cc2)C(=O)N2CCC[C@H]2C(=O)N[C@H](Cc2ccc(-c3ccccc3)cc2)C(=O)O)C[C@@H]2CCCC[C@@H]21)C(=O)O [compound 313] ({Tridecanoyl-γGlu-AEEA-AEEA}-[hArg][dR]Q[hArg]PK[NMeL]SH[Nle]G[Oic][Phe(4-I)]P[dBip]-OH)		14.7	EC50 (rat APJ receptor; [3]): 10.4 nM
CC(C)C[C@@H](C(=O)N[C@@H](CO)C(=O)N[C@@H](Cc1c[nH]cn1)C(=O)N[C@@H](CCCCN)C(=O)NCC(=O)N1[C@H](C(=O)N[C@@H](Cc2ccc(I)cc2)C(=O)N2CCC[C@H]2C(=O)N[C@H](Cc2ccc(-c3ccccc3)cc2)C(=O)O)C[C@@H]2CCCC[C@@H]21)N(C)C(=O)[C@@H](CCCNC(=N)N)NC(=O)[C@@H]1CCCN1C(=O)[C@H](CCCCNC(=N)N)NC(=O)[C@H](CCC(N)=O)NC(=O)[C@@H](CCCNC(=N)N)NC(=O)[C@H](CCCCNC(=N)N)NC(=O)COCCOCCNC(=O)COCCOCCNC(=O)CC[C@H](NC(=O)CCCCCCCCC(=O)O)C(=O)O [compound 289]		0.914	EC50 (rat APJ receptor; [3]): 1.3 nM
CCCCCCCCCCCCC(=O)N[C@@H](CCC(=O)NCCOCCOCC(=O)NCCOCCOCC(=O)N[C@@H](CCC(N)=O)C(=O)N[C@@H](CCCNC(=N)N)C(=O)N1CCC[C@H]1C(=O)N(C)[C@@H](CCCCNC(=N)N)C(=O)N[C@@H](CC(C)C)C(=O)N[C@@H](CO)C(=O)N[C@@H](Cc1c[nH]cn1)C(=O)N[C@@H](CCCCN)C(=O)NCC(=O)N1CCC[C@H]1C(=O)N[C@@H](CCCC)C(=O)N1CCC[C@H]1C(=O)N[C@@H](Cc1ccc2ccccc2c1)C(=O)O)C(=O)O [compound 471]	0.0229		remaining at 4 h, 5 μM [1]: 52%; remaining at 4 h, 5 μM [2]: < 1%
CCCCCCCCCCCCCCCC(=O)N[C@@H](CCC(=O)NCCOCCOCC(=O)NCCOCCOCC(=O)N[C@H](CCC(N)=O)C(=O)N[C@@H](CCCNC(=N)N)C(=O)N1CCC[C@H]1C(=O)N(C)[C@@H](CCCNC(=N)N)C(=O)N[C@@H](CC1CCCCC1)C(=O)N[C@@H](CO)C(=O)N[C@@H](Cc1c[nH]cn1)C(=O)N[C@@H](CCCCN)C(=O)NCC(=O)N1CCCC[C@H]1C(=O)N[C@@H](CCCC)C(=O)N1CCCC(C(=O)N[C@@H](Cc2ccc(Cl)cc2)C(=O)O)C1)C(=O)O (single isomer, unassigned) [compound 588]		1.52	remaining at 4 h, 5 μM [1]: > 90%
CCCCCCCCCCCCC(=O)N[C@@H](CCC(=O)NCCOCCOCC(=O)NCCOCCOCC(=O)N[C@@H](CCC(N)=O)C(=O)N[C@@H](CCCNC(=N)N)C(=O)N1CCC[C@H]1C(=O)N(C)[C@@H](CCCNC(=N)N)C(=O)N[C@@H](CC1CCCCC1)C(=O)N[C@@H](CO)C(=O)N[C@@H](Cc1c[nH]cn1)C(=O)N[C@@H](CCCCN)C(=O)NCC(=O)N1CCCC[C@H]1C(=O)N[C@@H](CCCC)C(=O)N1CCC[C@H]1C(=O)N[C@@H](Cc1ccc(Cl)cc1)C(=O)O)C(=O)O [compound 416] ({Tridecanoyl-γGlu-AEEA-AEEA}-QRP[NMeR][Cha]SHKG[Pip][Nle]P[Phe(4-Cl)]-OH)	0.192		remaining at 4 h, 5 μM [1]: 57.7%
CC(=O)N[C@@H](CCCCNC(=N)N)C(=O)N[C@@H](CCCCNC(=N)N)C(=O)N[C@@H](CCC(N)=O)C(=O)N[C@H](CCCNC(=N)N)C(=O)N1CCC[C@H]1C(=O)N(C)[C@@H](CCCNC(=N)N)C(=O)N[C@@H](CC1CCCCC1)C(=O)N[C@@H](CO)C(=O)N[C@@H](Cc1c[nH]cn1)C(=O)N[C@@H](CCCCN)C(=O)NCC(=O)N1[C@H](C(=O)N[C@@H](Cc2ccc(I)cc2)C(=O)N2CCC[C@H]2C(=O)N[C@H](Cc2ccc(-c3ccccc3)cc2)C(=O)O)C[C@@H]2CCCC[C@@H]21 [compound 22] (Ac-[hArg][hArg]Q[dR]P[NMeR][Cha]SHKG[Oic][Phe(4-I)]P[dBip]-OH)			EC50 (human APJ receptor): 1.52 nM
CCCCCCCCCCCCC(=O)N[C@@H](CCC(=O)NCCOCCOCC(=O)NCCOCCOCC(=O)N[C@@H](CC(N)=O)CC(=O)N[C@@H](CCCNC(=N)N)C(=O)N1CCC[C@H]1C(=O)N(C)[C@@H](CCCNC(=N)N)C(=O)N[C@@H](CC(C)C)C(=O)N[C@@H](CO)C(=O)N[C@@H](Cc1c[nH]cn1)C(=O)N[C@@H](CCCCN)C(=O)NCC(=O)N1CCC[C@H]1C(=O)N[C@@H](CCCC)C(=O)N1CCC[C@H]1C(=O)N[C@@H](Cc1ccc(Cl)cc1)C(=O)O)C(=O)O [compound 420]		0.0526	
CCCCCCCCCCCCC(=O)N[C@@H](CCC(=O)NCCOCCOCC(=O)NCCOCCOCC(=O)N[C@@H](CCC(N)=O)C(=O)N[C@@H](CCCNC(=N)N)C(=O)N1CCC[C@H]1CC(=O)N(C)[C@@H](CCCNC(=N)N)C(=O)N[C@@H](CC1CCCCC1)C(=O)N[C@@H](CO)C(=O)N[C@@H](Cc1c[nH]cn1)C(=O)N[C@@H](CCCCN)C(=O)NCC(=O)N1[C@H](C(=O)N[C@@H](CCCC)C(=O)N2CCC[C@H]2C(=O)N[C@@H](Cc2ccc(Cl)cc2)C(=O)O)C[C@@H]2CCCC[C@@H]21)C(=O)O [compound 441] ({Tridecanoyl-γGlu-AEEA-AEEA}-QR[β3hP][NMeR][Cha]SHKG[Oic][Nle]P[Phe(4-Cl)]-OH)	1.9		
CCCCCCCCCCCCC(=O)N[C@@H](CCC(=O)NCCOCCOCC(=O)NCCOCCOCC(=O)N[C@@H](CCC(N)=O)C(=O)N[C@@H](CCCNC(=N)N)C(=O)N1CCC[C@H]1C(=O)N(C)[C@@H](CCCNC(=N)N)C(=O)N[C@@H](CC1CCCCC1)C(=O)N[C@@H](CO)C(=O)N[C@H](C(=O)N[C@@H](CCCCN)C(=O)NCC(=O)N1[C@H](C(=O)N[C@@H](CCCC)C(=O)N2CCC[C@H]2C(=O)N[C@@H](Cc2ccc(Cl)cc2)C(=O)O)C[C@@H]2CCCC[C@@H]21)C(C)(C)C)C(=O)O [compound 438] ({Tridecanoyl-γGlu-AEEA-AEEA}-QRP[NMeR][Cha]S[Tle]KG[Oic][Nle]P[Phe(4-Cl)]-OH)	1.49		
CCCCCCCCCCCCCCCC(=O)N[C@@H](CCC(=O)NCCOCCOCC(=O)NCCOCCOCC(=O)N[C@H](CCC(N)=O)C(=O)N[C@@H](CCCNC(=N)N)C(=O)N1CCC[C@H]1C(=O)N(C)[C@@H](CCCNC(=N)N)C(=O)N[C@@H](CC1CCCCC1)C(=O)N[C@@H](CO)C(=O)N[C@@H](Cc1c[nH]cn1)C(=O)N[C@@H](CCCCN)C(=O)NCC(=O)N1CCCC[C@H]1C(=O)NC(C)(C)C(=O)N[C@@H](Cc1ccc(Cl)cc1)C(=O)O)C(=O)O [compound 581] ({Palmitoyl-γGlu-AEEA-AEEA}-[dQ]RP[NMeR][Cha]SHKG[Pip][Aib][Phe(4-Cl)]-OH)		1.4	
CCCCCCCCCCCCC(=O)N[C@@H](CCC(=O)NCCOCCOCC(=O)NCCOCCOCC(=O)N[C@@H](CCC(N)=O)C(=O)N[C@@H](CCCNC(=N)N)C(=O)N1CCCC[C@H]1C(=O)N(C)[C@@H](CCCNC(=N)N)C(=O)N[C@@H](CC1CCCCC1)C(=O)N[C@@H](CO)C(=O)N[C@@H](Cc1c[nH]cn1)C(=O)N[C@@H](CCCCN)C(=O)NCC(=O)N1[C@H](C(=O)N[C@@H](CCCC)C(=O)N2CCC[C@H]2C(=O)N[C@@H](Cc2ccc(Cl)cc2)C(=O)O)C[C@@H]2CCCC[C@@H]21)C(=O)O [compound 440] ({Tridecanoyl-γGlu-AEEA-AEEA}-QR[Pip][NMeR][Cha]SHKG[Oic][Nle]P[Phe(4-Cl)]-OH)	3.48		
CCCCCCCCCCCCCCCC(=O)N[C@@H](CCC(=O)NCCOCCOCC(=O)NCCOCCOCC(=O)N[C@H](CCC(N)=O)C(=O)N[C@@H](CCCNC(=N)N)C(=O)N1CCC[C@H]1C(=O)N(C)[C@@H](CCCNC(=N)N)C(=O)N[C@@H](CC1CCCCC1)C(=O)N[C@@H](CO)C(=O)N(CCC)CC(=O)N[C@@H](CCCCN)C(=O)NCC(=O)N1CCCC[C@H]1C(=O)N[C@@H](CCCC)C(=O)NC(C)(C)C(=O)N[C@@H](Cc1ccc(Cl)cc1)C(=O)O)C(=O)O [compound 644] ({Palmitoyl-γGlu-AEEA-AEEA}-[dQ]RP[NMeR][Cha]S[NPrGly]KG[Pip][Nle][Aib][Phe(4-Cl)]-OH)		1.4	
